Test results from patent publication US12310975B2, “Modulators of BCL6 proteolysis and associated methods of use” (Arvinas Operations, Inc., priority 2019, dated 2025).

Biological target: BCL6 (Homo sapiens (Human), UniProt P41182)
Test: Immunofluorescence high content imaging of BCL6 degradation in T47D cells
Assay type: cell-based
Conditions: class symbols A-D, read-out: EC50 (nM)*
Protocol: Immunofluorescence Protocol for High Cotent Imaging of BCL6
T47D cells were seeded in 100 μl volume of RPMI1640-10% FBS in a 96-well black/clear bottom plates for adherent lines (Corning #3904).
Day 1. T47D breast cancer epithelial cells were seeded at a density so that confluence is ˜70-90% at endpoint. Cells were seeded at 7K/0.1 ml/well the morning prior to the addition of exemplary bifunctional degradation compounds.
Day 2. Prepare an 11 point 3-fold serial dilution of exemplary bifunctional compound in DMSO and aliquot an appropriate volume to cell growth media to generate a 2× final concentration of exemplary bifunctional compound. Add an equal volume (0.1 ml) of 2× exemplary bifunctional compound/media mix to previously plated cells, for a final top concentration in aqueous cell growth media of 0.1 or 1 μM. Incubate for 3 days at 37° C., 5% CO2.
Day 5 Immunofluorescence. Discard cell media. Wash wells with 200 μl of room temperature phosphate-buffered saline (PBS). Prepared 4% paraformaldehyde (PFA) from 16% PFA (Electron Microscopy Sciences #15710) using 1×PBS. Fifty μl of 4% PF was added to each well and incubate for 15 minutes at room temperature to fix the cells. The PFA was aspirated and the cells washed twice with PBS (200 μl)).
Prepared 0.1% Triton X-100 in PBS using 10% triton X-100 stock. The cells were permeabilized by adding 100 ul of the 0.1% Triton X-100 in PBS to each well to permeabilize cells and incubating at room temperature for 15 minutes. Cells were washed twice with PBS.
Prepared 3% BSA/PBS (from Thermofisher #37515 Blocker BSA in TBS, 10%), and 100 ul was added to each well. The cells were incubated for at least 1 hour at room temperature.
Prepared 1% BSA/PBS using Blocker BSA/PBS, and the 3% BSA/PBS removed from the wells.
For no primary antibody controls, 50 μl 1% BSA/PBS was added.
Primary antibody (BCL6 Rb Ab, CST-14895, Cell Signaling) was diluted 1:300 in 1% BSA/PBS using Blocker BSA/PBS.
Fifty μl of primary antibody added to all remaining wells (i.e., all wells other than the primary antibody controls) and the cells were incubated overnight at 4° C. with slow orbital movement.
Day 6. Contents of the wells was removed and the cells washed four times with 200 ul PBS. 1% BSA/PBS was prepared using Blocker BSA in PBS.
Diluted secondary antibody goat anti-Rb IgG Alexa-488 1:1000, and cell mask-Alexa-647 1:3000 in 1% BSA/PBS in the same mix. Add 50 μl to each well and incubate at room temperature for 1 hour in the dark.
Cells were washed three times with 200 ul PBS, and then incubated for 10 minutes with 100 ul Hoechst dye at 1 μg/mL (20 mM stock) to stain cell nuclei. Wells were then washed with 200 μl PBS, and 100 ul of PBS was added to each well and the plate covered plate with a plastic opaque cover. Plates were stored at 4° C. and covered in aluminum foil until imaged.
Plates were equilibrated to room temperature prior to reading. The bottom of the plate was wiped with 70% isopropanol immediately prior to imaging.
10×, 4 fields/well, include Top hat smoothing in the analysis protocol.

| SMILES | DC50 |
| --- | --- |
| CNC(=O)COc1cc2cc(Nc3nc(N4CCC(OCCOCCNc5cccc6c5C(=O)N(C5CCC(=O)NC5=O)C6=O)CC4)ncc3Cl)ccc2n(C)c1=O (centres unmarked) [compound 75, 2-((6-((5-chloro-2-(4-(2-(2-((2-(2,6-dioxopiperidin-3-yl)-1,3-dioxoisoindolin-4-yl)amino)ethoxy)ethoxy)piperidin-1-yl)pyrimidin-4-yl)amino)-1-methyl-2-oxo-1,2-dihydroquinolin-3-yl)oxy)-N-methylacetamide] | 50 to 100 nM |
| CN1C(=O)CCc2cc(Nc3cc(OC4CCN(C(=O)COCCOc5ccc6c(c5)C(=O)N(C5CCC(=O)NC5=O)C6=O)CC4)c([N+](=O)[O-])cc3Cl)ccc21 (centres unmarked) [compound 76, 5-(2-(2-(4-(4-chloro-5-((1-methyl-2-oxo-1,2,3,4-tetrahydroquinolin-6-yl)amino)-2-nitrophenoxy)piperidin-1-yl)-2-oxoethoxy)ethoxy)-2-(2,6-dioxopiperidin-3-yl)isoindoline-1,3-dione] | > 100 nM |
| CN1C(=O)CCc2cc(Nc3cc(N4CCC(CN5CCN(c6ccc7c(c6)C(=O)N(C6CCC(=O)NC6=O)C7=O)CC5)CC4)c([N+](=O)[O-])cc3Cl)ccc21 (centres unmarked) [compound 77, 5-(4-((1-(4-chloro-5-((1-methyl-2-oxo-1,2,3,4-tetrahydroquinolin-6-yl)amino)-2-nitrophenyl)piperidin-4-yl)methyl)piperazin-1-yl)-2-(2,6-dioxopiperidin-3-yl)isoindoline-1,3-dione] | > 100 nM |
| CN1C(=O)CCc2cc(Nc3cc(OC4CCN(C5CCN(c6ccc7c(c6)C(=O)N(C6CCC(=O)NC6=O)C7=O)CC5)CC4)c([N+](=O)[O-])cc3Cl)ccc21 (centres unmarked) [compound 79, 5-(4-(4-chloro-5-((1-methyl-2-oxo-1,2,3,4-tetrahydroquinolin-6-yl)amino)-2-nitrophenoxy)-[1,4′-bipiperidin]-1′-yl)-2-(2,6-dioxopiperidin-3-yl)isoindoline-1,3-dione] | > 100 nM |
| CNC(=O)COc1cc2cc(Nc3nc(N4CCC(OCCNc5cccc6c5C(=O)N(C5CCC(=O)NC5=O)C6=O)CC4)ncc3Cl)ccc2n(C)c1=O (centres unmarked) [compound 80, 2-((6-((5-chloro-2-(4-(2-((2-(2,6-dioxopiperidin-3-yl)-1,3-dioxoisoindolin-4-yl)amino)ethoxy)piperidin-1-yl)pyrimidin-4-yl)amino)-1-methyl-2-oxo-1,2-dihydroquinolin-3-yl)oxy)-N-methylacetamide] | 50 to 100 nM |
| CNC(=O)COc1cc2cc(Nc3nc(N4CCC(OCCOCCOCCOCCOCCOc5ccc6c(c5)CN(C5(C)CCC(=O)NC5=O)C6=O)CC4)ncc3Cl)ccc2n(C)c1=O (centres unmarked) [compound 84, 2-((6-((5-chloro-2-(4-((14-((2-(3-methyl-2,6-dioxopiperidin-3-yl)-1-oxoisoindolin-5-yl)oxy)-3,6,9,12-tetraoxatetradecyl)oxy)piperidin-1-yl)pyrimidin-4-yl)amino)-1-methyl-2-oxo-1,2-dihydroquinolin-3-yl)oxy)-N-methylacetamide] | 10 to 50 nM |
| CN1C(=O)CCc2cc(Nc3cc(N4CCC(CN(C)[C@H]5C[C@H](Oc6ccc7c(c6)C(=O)N(C6CCC(=O)NC6=O)C7=O)C5)CC4)c([N+](=O)[O-])cc3Cl)ccc21 (some centres unmarked) [compound 85, 5-((1r,3r)-3-(((1-(4-chloro-5-((1-methyl-2-oxo-1,2,3,4-tetrahydroquinolin-6-yl)amino)-2-nitrophenyl)piperidin-4-yl)methyl)(methyl)amino)cyclobutoxy)-2-(2,6-dioxopiperidin-3-yl)isoindoline-1,3-dione] | > 100 nM |
| CNC(=O)COc1cc2cc(Nc3nc(N4CCC(c5cccc(OCCOCCOCCOCCOc6ccc7c(c6)CN(C6CCC(=O)NC6=O)C7=O)c5)CC4)ncc3Cl)ccc2n(C)c1=O (centres unmarked) [compound 88, 2-((6-((5-chloro-2-(4-(3-(2-(2-(2-(2-((2-(2,6-dioxopiperidin-3-yl)-1-oxoisoindolin-5-yl)oxy)ethoxy)ethoxy)ethoxy)ethoxy)phenyl)piperidin-1-yl)pyrimidin-4-yl)amino)-1-methyl-2-oxo-1,2-dihydroquinolin-3-yl)oxy)-N-methylacetamide] | 10 to 50 nM |

Results, then the compound that gave them:

| DC50 | SMILES |
| --- | --- |
| 10 to 50 nM | CNC(=O)COc1cc2cc(Nc3nc(N4CCC(OCCOCCOCCOCCOCC(=O)N[C@H](C(=O)N5C[C@H](O)C[C@H]5C(=O)NCc5ccc(-c6scnc6C)cc5)C(C)(C)C)CC4)ncc3Cl)ccc2n(C)c1=O [compound 78, (2S,4R)-1-((S)-2-(tert-butyl)-17-((1-(5-chloro-4-((1-methyl-3-(2-(methylamino)-2-oxoethoxy)-2-oxo-1,2-dihydroquinolin-6-yl)amino)pyrimidin-2-yl)piperidin-4-yl)oxy)-4-oxo-6,9,12,15-tetraoxa-3-azaheptadecanoyl)-4-hydroxy-N-(4-(4-methylthiazol-5-yl)benzyl)pyrrolidine-2-carboxamide] |
| > 100 nM | CNC(=O)COc1cc2cc(Nc3nc(N4CCC(OCCOCCOCCOCCOCCOCCNc5cccc6c5C(=O)N(C5CCC(=O)NC5=O)C6=O)CC4)ncc3Cl)ccc2n(C)c1=O (centres unmarked) [compound 81, 2-((6-((5-chloro-2-(4-((17-((2-(2,6-dioxopiperidin-3-yl)-1,3-dioxoisoindolin-4-yl)amino)-3,6,9,12,15-pentaoxaheptadecyl)oxy)piperidin-1-yl)pyrimidin-4-yl)amino)-1-methyl-2-oxo-1,2-dihydroquinolin-3-yl)oxy)-N-methylacetamide] |
| 50 to 100 nM | CNC(=O)COc1cc2cc(Nc3nc(N4CCC(OCCOCCOCCOCCOCCOCC(=O)N[C@H](C(=O)N5C[C@H](O)C[C@H]5C(=O)NCc5ccc(-c6scnc6C)cc5)C(C)(C)C)CC4)ncc3Cl)ccc2n(C)c1=O [compound 82, (2S,4R)-1-((S)-2-(tert-butyl)-20-((1-(5-chloro-4-((1-methyl-3-(2-(methylamino)-2-oxoethoxy)-2-oxo-1,2-dihydroquinolin-6-yl)amino)pyrimidin-2-yl)piperidin-4-yl)oxy)-4-oxo-6,9,12,15,18-pentaoxa-3-azaicosanoyl)-4-hydroxy-N-(4-(4-methylthiazol-5-yl)benzyl)pyrrolidine-2-carboxamide] |
| 50 to 100 nM | CNC(=O)COc1cc2cc(Nc3nc(N4CCC(OCCOCCOCCOCCOCCOCCOCC(=O)N[C@H](C(=O)N5C[C@H](O)C[C@H]5C(=O)NCc5ccc(-c6scnc6C)cc5)C(C)(C)C)CC4)ncc3Cl)ccc2n(C)c1=O [compound 83, (2S,4R)-1-((S)-2-(tert-butyl)-23-((1-(5-chloro-4-((1-methyl-3-(2-(methylamino)-2-oxoethoxy)-2-oxo-1,2-dihydroquinolin-6-yl)amino)pyrimidin-2-yl)piperidin-4-yl)oxy)-4-oxo-6,9,12,15,18,21-hexaoxa-3-azatricosanoyl)-4-hydroxy-N-(4-(4-methylthiazol-5-yl)benzyl)pyrrolidine-2-carboxamide] |
| 50 to 100 nM | CNC(=O)COc1cc2cc(Nc3nc(N4CCC(OCCOCC(=O)N[C@H](C(=O)N5C[C@H](O)C[C@H]5C(=O)NCc5ccc(-c6scnc6C)cc5)C(C)(C)C)CC4)ncc3Cl)ccc2n(C)c1=O [compound 86, (2S,4R)-1-((S)-2-(2-(2-((1-(5-chloro-4-((1-methyl-3-(2-(methylamino)-2-oxoethoxy)-2-oxo-1,2-dihydroquinolin-6-yl)amino)pyrimidin-2-yl)piperidin-4-yl)oxy)ethoxy)acetamido)-3,3-dimethylbutanoyl)-4-hydroxy-N-(4-(4-methylthiazol-5-yl)benzyl)pyrrolidine-2-carboxamide] |
| 50 to 100 nM | CNC(=O)COc1cc2cc(Nc3nc(N4CCC(OCCOCCOCCOCCOCCOc5ccc6c(c5)CN(C5CCC(=O)N(C)C5=O)C6=O)CC4)ncc3Cl)ccc2n(C)c1=O (centres unmarked) [compound 87, 2-((6-((5-chloro-2-(4-((14-((2-(1-methyl-2,6-dioxopiperidin-3-yl)-1-oxoisoindolin-5-yl)oxy)-3,6,9,12-tetraoxatetradecyl)oxy)piperidin-1-yl)pyrimidin-4-yl)amino)-1-methyl-2-oxo-1,2-dihydroquinolin-3-yl)oxy)-N-methylacetamide] |
